Test results from patent US20260184687A1, “DIHYDROINDENE DERIVATIVES AS MALT1 INHIBITORS” (C4X Discovery Limited, priority 2022, published 2026).
pIC50: −log10 of the molar value.

Tests used:
[1] = tested on: IL-2 release from stimulated Jurkat cells; experiment: Human IL-2 Release Phenotypic Assay (Assay 3); type: cell-based; conditions: Jurkat cells (clone E6-1), 200 ng/mL PMA + 300 ng/mL ionomycin, IL-2 by ELISA
In short: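 IC50 values were fitted by 4-parameter non-linear regression to IL-2 release from Jurkat E6-1 cells. Those cells were stimulated for 48 h with PMA (200 ng/mL) plus ionomycin (300 ng/mL) after a 30-min compound pre-incubation at half-log doses in 0.5% DMSO. Cells had been plated at 50 000/well overnight at 37° C.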

[2] = target: MALT1-GS-Ub (6-His-hMALT-1 residues 339-715 fused to ubiquitin) (Homo sapiens, UniProt Q9UDY8); experiment: biochemical;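 also: in vitro MALT1 protease assay: enzyme preincubated with compound 30 min at room temperature, then cleavage of fluorogenic Ac-LVSR-AMC substrate (100 µM) followed by fluorescence every 15 min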
Sequence of MALT1-GS-Ub (6-His-hMALT-1 residues 339-715 fused to ubiquitin) (Q9UDY8 with tags, fused parts or gaps limits assumed): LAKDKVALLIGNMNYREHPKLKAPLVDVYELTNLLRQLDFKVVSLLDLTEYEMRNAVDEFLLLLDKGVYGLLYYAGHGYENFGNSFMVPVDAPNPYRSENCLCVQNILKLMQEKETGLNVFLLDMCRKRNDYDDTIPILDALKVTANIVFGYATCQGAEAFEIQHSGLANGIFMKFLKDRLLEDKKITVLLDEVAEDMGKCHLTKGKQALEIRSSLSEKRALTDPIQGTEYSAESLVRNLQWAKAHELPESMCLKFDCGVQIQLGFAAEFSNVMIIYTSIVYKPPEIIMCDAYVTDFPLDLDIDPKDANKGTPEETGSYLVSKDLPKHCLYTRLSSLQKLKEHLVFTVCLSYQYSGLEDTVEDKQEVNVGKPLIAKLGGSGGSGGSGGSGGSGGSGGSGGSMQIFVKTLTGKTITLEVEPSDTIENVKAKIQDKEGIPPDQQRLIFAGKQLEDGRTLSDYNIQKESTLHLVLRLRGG

[3] = target: T1, FL hMALT1 enzyme (Homo sapiens, UniProt Q9UDY8); experiment: biochemical;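 also: Cell-free protease assay: enzyme preincubated with compound 30 min at room temperature, then cleavage of fluorogenic Ac-LVSR-AMC substrate (100 µM) tracked by fluorescence (ex 360/em 460 nm)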
T1 sequence (Q9UDY8 1-824): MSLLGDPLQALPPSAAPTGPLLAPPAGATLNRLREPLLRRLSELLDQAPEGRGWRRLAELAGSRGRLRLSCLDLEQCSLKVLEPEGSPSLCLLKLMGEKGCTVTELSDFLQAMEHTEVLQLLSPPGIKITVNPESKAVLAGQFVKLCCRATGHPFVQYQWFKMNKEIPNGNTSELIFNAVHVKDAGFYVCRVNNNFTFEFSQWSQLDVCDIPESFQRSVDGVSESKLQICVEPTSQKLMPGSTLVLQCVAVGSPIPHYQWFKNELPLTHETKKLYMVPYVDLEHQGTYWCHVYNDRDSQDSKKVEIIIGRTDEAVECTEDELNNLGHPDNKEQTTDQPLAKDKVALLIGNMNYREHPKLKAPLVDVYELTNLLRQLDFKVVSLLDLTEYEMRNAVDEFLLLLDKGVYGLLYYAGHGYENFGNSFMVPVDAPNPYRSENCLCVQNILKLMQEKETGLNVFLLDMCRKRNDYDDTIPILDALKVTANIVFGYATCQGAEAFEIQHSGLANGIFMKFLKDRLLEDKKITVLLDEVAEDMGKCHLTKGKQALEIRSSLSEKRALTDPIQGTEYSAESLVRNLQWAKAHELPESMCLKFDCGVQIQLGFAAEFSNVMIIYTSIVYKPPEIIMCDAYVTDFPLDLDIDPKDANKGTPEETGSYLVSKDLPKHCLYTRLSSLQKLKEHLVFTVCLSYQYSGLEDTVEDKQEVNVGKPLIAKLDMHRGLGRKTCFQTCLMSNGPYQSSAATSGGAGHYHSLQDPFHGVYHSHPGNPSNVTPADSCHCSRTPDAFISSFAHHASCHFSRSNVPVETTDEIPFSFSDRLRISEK

Row | pIC50 ([1]; Homo sapiens, Jurkat, 48 h) | pIC50 [2] | pIC50 [3] | pIC50 ([1]; 48 hours) | SMILES
1 |  | 6.92 |  | 5.53 | CN(C(=O)CCCC(=O)O)[C@@H](c1ccc(NC2Cc3ccccc3C2(C)C)cc1)C(F)(F)F (single isomer, unassigned) [Example 50]
2 | 5.02 | 6.59 |  |  | CN(C(=O)CCC(=O)O)[C@@H](c1ccc(NC2Cc3ccccc3C2(C)C)cc1)C(F)(F)F (single isomer, unassigned) [Example 52]
3 |  | 6.77 |  | 5.14 | CN(C(=O)CCC(=O)O)[C@@H](c1ccc(NC2Cc3ccccc3C2(C)C)cc1)C(F)(F)F (single isomer, unassigned) [Example 53]
4 | 5.68 | 6.48 |  |  | COc1ccc2c(c1)CC(Nc1ccc([C@H](N(C)C(=O)C3CCS(=O)(=O)CC3)C(F)(F)F)cc1)C2 (single isomer, unassigned) [Example 54]
5 |  | 6.74 |  | 6.08 | CNS(=O)(=O)CCC(=O)N(C)[C@@H](c1ccc(NC2Cc3ccccc3C2(C)C)cc1)C(F)(F)F (single isomer, unassigned) [Example 61]
6 |  | 6.77 |  | 5.67 | CNS(=O)(=O)CCC(=O)N(C)[C@@H](c1ccc(NC2Cc3ccccc3C2(C)C)cc1)C(F)(F)F (single isomer, unassigned) [Example 62]
7 | 5.58 | 6.48 |  |  | CN(C(=O)C1CCS(=O)(=O)CC1)[C@@H](c1ccc(NC2Cc3ccccc3C2)cn1)C(F)(F)F (single isomer, unassigned) [Example 71]
8 |  | 4.80 | < 5.52 |  | CN(C(=O)C1CNC1)C(c1ccc(NC2Cc3ccccc3C2(C)C)cn1)C(F)(F)F (single isomer, unassigned) [Example 83, N-(1-(5-((1,1-Dimethyl-2,3-dihydro-1H-inden-2-yl)amino)pyridin-2-yl)-2,2,2-trifluoroethyl)-N-methylazetidine-3-carboxamide]
9 |  | 4.96 | < 5.52 |  | CN(C(=O)C1CNC1)C(c1ccc(NC2Cc3ccccc3C2(C)C)cn1)C(F)(F)F (single isomer, unassigned) [Example 86, N-(1-(5-((1,1-Dimethyl-2,3-dihydro-1H-inden-2-yl)amino)pyridin-2-yl)-2,2,2-trifluoroethyl)-N-methylazetidine-3-carboxamide]
10 |  | 5.16 | < 5.52 |  | CN(C(=O)C1CNC1)C(c1ccc(NC2Cc3ccccc3C2(C)C)nc1)C(F)(F)F (single isomer, unassigned) [Example 89, N-(1-(6-((1,1-Dimethyl-2,3-dihydro-1H-inden-2-yl)amino)pyridin-3-yl)-2,2,2-trifluoroethyl)-N-methylazetidine-3-carboxamide]
11 |  | 4.09 | < 5.52 |  | CN1CC(C(=O)N(C)C(c2ccc(NC3Cc4ccccc4C3(C)C)cn2)C(F)(F)F)C1 (single isomer, unassigned) [Example 90, N-(1-(5-((1,1-Dimethyl-2,3-dihydro-1H-inden-2-yl)amino)pyridin-2-yl)-2,2,2-trifluoroethyl)-N,1-dimethylazetidine-3-carboxamide]
12 |  | 4.92 | < 5.52 |  | CN1CC(C(=O)N(C)C(c2ccc(NC3Cc4ccccc4C3(C)C)cn2)C(F)(F)F)C1 (single isomer, unassigned) [Example 91, N-(1-(5-((1,1-Dimethyl-2,3-dihydro-1H-inden-2-yl)amino)pyridin-2-yl)-2,2,2-trifluoroethyl)-N,1-dimethylazetidine-3-carboxamide]
13 |  | 4.77 | < 5.52 |  | CN1CC(C(=O)N(C)C(c2ccc(NC3Cc4ccccc4C3(C)C)nc2)C(F)(F)F)C1 (single isomer, unassigned) [Example 94, N-(1-(6-((1,1-Dimethyl-2,3-dihydro-1H-inden-2-yl)amino)pyridin-3-yl)-2,2,2-trifluoroethyl)-N,1-dimethylazetidine-3-carboxamide]
14 |  | 4.80 | < 5.52 |  | CN(C(=O)c1cc[nH]c(=O)c1)C(c1ccc(NC2Cc3ccccc3C2(C)C)cn1)C(F)(F)F (single isomer, unassigned) [Example 97, N-(1-(5-((1,1-Dimethyl-2,3-dihydro-1H-inden-2-yl)amino)pyridin-2-yl)-2,2,2-trifluoroethyl)-N-methyl-2-oxo-1,2-dihydropyridine-4-carboxamide]
15 |  | 4.59 | < 5.52 |  | CN(C(=O)c1cc[nH]c(=O)c1)C(c1ccc(NC2Cc3ccccc3C2(C)C)cn1)C(F)(F)F (single isomer, unassigned) [Example 99, N-(1-(5-((1,1-Dimethyl-2,3-dihydro-1H-inden-2-yl)amino)pyridin-2-yl)-2,2,2-trifluoroethyl)-N-methyl-2-oxo-1,2-dihydropyridine-4-carboxamide]
16 |  | 5.57 |  |  | CN(C(=O)OC1CN(C(=O)OC(C)(C)C)C1)[C@@H](c1ccc(NC2Cc3ccccc3C2(C)C)cc1)C(F)(F)F (stereo partly drawn) [Example 59, tert-Butyl 3-((((1S)-1-(4-((1,1-dimethyl-2,3-dihydro-1H-inden-2-yl)amino)phenyl)-2,2,2-trifluoroethyl)(methyl)carbamoyl)oxy)azetidine-1-carboxylate]

Further lines, the molecule ahead of its results:

Row | SMILES | pIC50 ([1]; Homo sapiens, Jurkat, 48 h) | pIC50 [2] | pIC50 [3] | pIC50 ([1]; 48 hours)
17 | CC1c2ccccc2CC1Nc1ccc(C(N(C)C(=O)C2CCS(=O)(=O)CC2)C(F)(F)F)cc1 (mixture of isomers) [Example 8, N-Methyl-N—((S)-2,2,2-trifluoro-1-(4-(((1,2-cis)-1-methyl-2,3-dihydro-1H-inden-2-yl)amino)phenyl)ethyl)tetrahydro-2H-thiopyran-4-carboxamide 1,1-dioxide] | 6.82 | 6.70 | 7.41 | 
18 | CN(C(=O)C1CCS(=O)(=O)CC1)[C@@H](c1ccc(NC2Cc3ccccc3C2(C)C)cc1)C(F)(F)F (single isomer, unassigned) [Example 1] | 6.37 | 6.85 | 8.15 | 
19 | CN(C(=O)c1cnco1)[C@@H](c1ccc(NC2Cc3ccccc3C2(C)C)cc1)C(F)(F)F (single isomer, unassigned) [Example 5] |  | 6.85 | 6.60 | 5.65
20 | CC(=O)N1CC(C(=O)N(C)[C@@H](c2ccc(NC3Cc4ccccc4C3(C)C)cc2)C(F)(F)F)C1 (single isomer, unassigned) [Example 6] |  | 6.82 | 7.80 | 6.49
21 | CC(=O)N1CC(C(=O)N(C)[C@@H](c2ccc(NC3Cc4ccccc4C3(C)C)cc2)C(F)(F)F)C1 (single isomer, unassigned) [Example 7] |  | 6.72 | 7.17 | 6.09
22 | COC1c2ccccc2CC1Nc1ccc([C@H](N(C)C(=O)C2CCS(=O)(=O)CC2)C(F)(F)F)cc1 (single isomer, unassigned) [Example 10] | 5.81 | 6.27 | 6.92 | 
23 | CN(C(=O)N1CCOCC1)[C@@H](c1ccc(N[C@H]2Cc3ccccc3C2(C)C)cc1)C(F)(F)F (single isomer, unassigned) [Example 12] | 6.31 | 6.74 | 6.54 | 
24 | CN(C(=O)N1CCOCC1)[C@@H](c1ccc(N[C@@H]2Cc3ccccc3C2(C)C)cc1)C(F)(F)F (single isomer, unassigned) [Example 13] | 5.71 | 6.40 | 6.40 | 
25 | CN(C(=O)N1CCS(=O)(=O)CC1)[C@@H](c1ccc(NC2Cc3ccccc3C2(C)C)cc1)C(F)(F)F (single isomer, unassigned) [Example 14] |  | 6.66 | 6.96 | 6.49
26 | CN(C(=O)N1CCS(=O)(=O)CC1)[C@@H](c1ccc(NC2Cc3ccccc3C2(C)C)cc1)C(F)(F)F (single isomer, unassigned) [Example 15] |  | 6.54 | 6.38 | 5.51
27 | CN(C(=O)C1CCOCC1)[C@@H](c1ccc(NC2Cc3ccccc3C2(C)C)cc1)C(F)(F)F (single isomer, unassigned) [Example 18] |  | 6.48 | 6.92 | 6.28
28 | CN(C(=O)C1CCOCC1)[C@@H](c1ccc(NC2Cc3ccccc3C2(C)C)cc1)C(F)(F)F (single isomer, unassigned) [Example 19] |  | 6.77 | 7.52 | 6.96
29 | CN(C(=O)CCCC(=O)O)[C@@H](c1ccc(NC2Cc3ccccc3C2(C)C)cc1)C(F)(F)F (single isomer, unassigned) [Example 49] | 5.33 | 6.59 |  | 
